Results published in US8952024B2, “Herbicidal pyrimidone derivatives” (E I du Pont de Nemours and Company, priority 2009, dated 2015).

Experiments:
Assay in all cases: Test B pre-/postemergence plant response
Assay type in all cases: in vivo
[1] = system: woolly cupgrass (Eriochloa villosa)
In short: (§1)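 Plants treated either at seeding (loam/sand soil) or postemergence at 2 to 18 cm height, using a surfactant-containing non-phytotoxic solvent formulation. Evaluation was visual after 13 to 15 days, 0 to 100 scale relative to controls.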

[2] = system: giant foxtail (Setaria faberii)
In short: as §1

[3] = system: Surinam grass (Brachiaria decumbens)
In short: as §1

kochia (Kochia scoparia) = system: kochia (Kochia scoparia)
In short: as §1

[4] = system: bermudagrass (Cynodon dactylon)
In short: as §1

[5] = system: lambsquarters (Chenopodium album)
In short: as §1

[6] = system: ragweed (common ragweed, Ambrosia elatior)
In short: as §1

[7] = system: large crabgrass (Digitaria sanguinalis)
In short: as §1

[8] = system: johnsongrass (Sorghum halepense)
In short: as §1

[9] = system: blackgrass (Alopecurus myosuroides)
In short: as §1

[10] = system: green foxtail (Setaria viridis)
In short: as §1

[11] = system: downy bromegrass (Bromus tectorum)
In short: as §1

[12] = system: velvetleaf (Abutilon theophrasti)
In short: as §1

corn (Zea mays) = system: corn (Zea mays)
In short: as §1

[13] = system: yellow nutsedge (Cyperus esculentus)
In short: as §1

[14] = system: Italian ryegrass (Lolium multiflorum)
In short: as §1

[15] = system: goosegrass (Eleusine indica)
In short: as §1

[16] = 31 g ai/ha, postemergence, scale 0 to 100, 0 is no effect, 100 is complete control
[17] = 62 g ai/ha, postemergence, 0 is no effect, 100 is complete control, 13 to 15 days
[18] = Postemergence, 125 g ai/ha, visual rating after 13 to 15 days, scale 0 (no effect) to 100 (complete control)
[19] = Postemergence, 250 g ai/ha, scale 0 to 100 (0 no effect, 100 complete control)

CCOCCn1c(-c2ccccc2)ncc(C(=O)C2=C(O)CCCC2=O)c1=O [Compound 96]
45: Johnsongrass plant response rating (0 to 100 scale) [8, 17] | Plant response rating, Corn (corn (Zea mays); [16])
85: Plant response rating, Cupgrass, Woolly [1, 18] | Plant response rating, Cupgrass, Woolly [1, 19] | Plant response rating, Foxtail, Giant [2, 19] | Plant response rating, Surinam Grass [3, 19] | Kochia plant response rating (0 to 100 scale) (kochia (Kochia scoparia); [17]) | Plant response rating, Crabgrass, Large [7, 18] | Plant response rating, Foxtail, Green [10, 19] | Plant response rating, Nutsedge, Yellow [13, 19] | Plant response rating, Goosegrass [15, 19]
100: Plant response rating, Kochia (kochia (Kochia scoparia); [19]) | Plant response rating, Lambsquarters [5, 19] | Plant response rating, Velvetleaf [12, 19]
90: Plant response rating, Lambsquarters [5, 16] | Plant response rating, Crabgrass, Large [7, 19]
95: Bermudagrass plant response rating (0 to 100 scale) [4, 17] | Plant response rating, Bermudagrass [4, 18] | Plant response rating, Ragweed [6, 19] | Plant response rating, Velvetleaf [12, 16]
40: Plant response rating, Blackgrass [9, 19]
70: Plant response rating, Cupgrass, Woolly [1, 16] | Foxtail, Giant plant response rating (0 to 100 scale) [2, 17] | Plant response rating, Nutsedge, Yellow [13, 16] | Nutsedge, Yellow plant response rating (0 to 100 scale) [13, 17] | Plant response rating, Goosegrass [15, 16] | Goosegrass plant response rating (0 to 100 scale) [15, 17]
20: Plant response rating, Johnsongrass [8, 16] | Blackgrass plant response rating (0 to 100 scale) [9, 17]
0: Plant response rating, Bromegrass, Downy [11, 16] | Bromegrass, Downy plant response rating (0 to 100 scale) [11, 17] | Plant response rating, Ryegrass, Italian [14, 16]
10: Plant response rating, Bromegrass, Downy [11, 19] | Plant response rating, Ryegrass, Italian [14, 19]
60: Corn plant response rating (0 to 100 scale) (corn (Zea mays); [17])
50: Plant response rating, Foxtail, Green [10, 16]
65: Plant response rating, Foxtail, Giant [2, 16] | Plant response rating, Kochia (kochia (Kochia scoparia); [16]) | Foxtail, Green plant response rating (0 to 100 scale) [10, 17] | Plant response rating, Corn (corn (Zea mays); [18])
5: Plant response rating, Blackgrass [9, 16] | Plant response rating, Bromegrass, Downy [11, 18] | Ryegrass, Italian plant response rating (0 to 100 scale) [14, 17]
98: Plant response rating, Bermudagrass [4, 19] | Lambsquarters plant response rating (0 to 100 scale) [5, 17] | Velvetleaf plant response rating (0 to 100 scale) [12, 17]
80: Plant response rating, Bermudagrass [4, 16] | Plant response rating, Ragweed [6, 16] | Ragweed plant response rating (0 to 100 scale) [6, 17] | Crabgrass, Large plant response rating (0 to 100 scale) [7, 17] | Plant response rating, Johnsongrass [8, 19] | Plant response rating, Corn (corn (Zea mays); [19])
30: Plant response rating, Blackgrass [9, 18]
75: Cupgrass, Woolly plant response rating (0 to 100 scale) [1, 17] | Plant response rating, Surinam Grass [3, 16] | Surinam Grass plant response rating (0 to 100 scale) [3, 17] | Plant response rating, Crabgrass, Large [7, 16]
